Test system: 885512-296-R-J2-PDC complex spheroid viability
Assay: Anticancer human tumor 885512-296-R-J2-PDC patient-derived breast carcinoma cell line growth inhibition [GQUAD]
Conditions: for IC50: curve of first compound; for viability, T/C: stronger effect = lower value
From the text: DNA G-quadruplex Stabilizer Agents in Combinations in Complex Spheroids
A high-throughput screen of multi-cell type tumor spheroids was designed to identify active combinations of DNA G-quadruplex stabilizer agents and targeted small molecules. Complex spheroids include a stromal component modeled by human endothelial cells (HUVEC) and fibroblasts modeled by human mesenchymal stem cells (MSCs). The concentration ranges selected for each drug and investigational agent were based upon clinically achievable concentrations if the clinical Cmax of the agent was known.
Compounds. The drugs and investigational agents: pidnarulex (CX-5461; NSC782164), APTO-253 (NSC789042), BRACO-19 (NSC847499), peposertib (NSC802822), ceralasertib (NSC780249), elimusertib (NSC800525), camonsertib (NSC841442), AZD-1390 (NSC803789), olaparib (NSC753686), talazoparib (NSC767125), ART-558 (NSC835418), sotorasib (NSC818433), MRTX-1133 (NSC836407), SN-38 (NSC673596), topotecan (NSC609699), etoposide (NSC141540), doxorubicin (NSC123127), gemcitabine (NSC613327), 5-fluorouracil (NSC19893), paclitaxel (NSC125973), vemurafenib (NSC761431), panobinostat (NSC761190), R-306465 (JNJ-16241199; NSC773264), adavosertib (NSC754352), TP-3654 (NSC805149), carboplatin (NSC241240), KSQ-4279 (NSC840948), and staurosporine (NSC755774) were obtained from the National Cancer Institute (NCI) Developmental Therapeutics Program Chemical Repository (34). The FDA-approved anticancer drug set is available from the NCI Developmental Therapeutics Program. […] The stock solutions were prepared in dimethyl sulfoxide (DMSO, Sigma-Aldrich, St. Louis, MO, cat. D2650) at 800-fold the tested concentration and stored at -70 degrees C prior to their use. All drugs and investigational agents were tested over a range starting from a high concentration at or near the clinical Cmax and decreasing in half-log increments. If the clinical Cmax for an agent had not been determined, the highest concentration tested was 10 microM.
2.3 Cell Culture. All cells were maintained in an incubator at 37 degrees C and 5% CO2 with 95% humidity. The PDC lines were cultured according to standard operating procedures established by the NCI PDMR. All PDCs were thawed and cultured in Matrigel-coated flasks prepared with a working solution of 1X Ham's F-12 nutrient mix, without supplementation (Invitrogen, cat. 11765054), 100 U/mL penicillin-streptomycin (Invitrogen, cat. 15140122), and 2.5% Matrigel (Corning Inc., cat. 354248) for the first three passages. The 857933-349-R-J2-PDC line was cultured in 6C/Colon 1B media, which includes advanced DMEM/F-12 (Thermo Fisher Scientific, cat. 12634028), 10 mM HEPES (Thermo Fisher Scientific, cat. 15630080), 1X GlutaMAX supplement (Thermo Fisher Scientific, cat. 35050061), 0.1 mg/mL primocin (InvivoGen, cat. ant-pm-2), 10% defined fetal bovine serum, heat inactivated (HyClone Laboratories Inc., cat. SH30070.03HI), 50% L-WRN conditioned media (ATCC, cat. CRL-3276), 1.25 mM N-Acetyl-L-cysteine (Sigma-Aldrich, cat. A9165), 10 mM nicotinamide (Sigma-Aldrich, cat. N0636), 1X B-27 supplement (Thermo Fisher Scientific, cat. 17504044), 1X N-2 supplement (Thermo Fisher Scientific, cat. 17502048), 10 microM Y-27632 dihydrochloride (Tocris Bioscience, cat. 1254), and 50 ng/mL human EGF recombinant protein (Thermo Fisher Scientific, cat. PHG0311). The 485176-168-R4-J1-PDC line was cultured in Panc media, which includes all 6C/Colon 1B media components plus 100 ng/mL human FGF-10 (Thermo Fisher Scientific, cat. 100-26), 500 nM SB-431542 (Selleckchem, cat. S1067), and gastrin (Tocris, cat. 3006).
[…]

[1] = second compound 0.0316 µM, first compound 0.0316 µM
[2] = second compound 0.0316 µM, first compound 0.1 µM
[3] = second compound 0.0316 µM, first compound 0.316 µM
[4] = second compound 0.0316 µM, first compound 1 µM
[5] = second compound 0.0316 µM, first compound 3.16 µM
[6] = second compound 0.0316 µM, first compound 10 µM
[7] = second compound 0.1 µM, first compound 0.0316 µM
[8] = second compound 0.1 µM, first compound 0.1 µM
[9] = second compound 0.1 µM, first compound 0.316 µM
[10] = second compound 0.1 µM, first compound 1 µM
[11] = second compound 0.1 µM, first compound 3.16 µM
[12] = second compound 0.1 µM, first compound 10 µM
[13] = second compound 0.316 µM, first compound 0.0316 µM
[14] = second compound 0.316 µM, first compound 0.1 µM
[15] = second compound 0.316 µM, first compound 0.316 µM
[16] = second compound 0.316 µM, first compound 1 µM
[17] = second compound 0.316 µM, first compound 3.16 µM
[18] = second compound 0.316 µM, first compound 10 µM
[19] = second compound 1 µM, first compound 0.0316 µM
[20] = second compound 1 µM, first compound 0.1 µM
[21] = second compound 1 µM, first compound 0.316 µM
[22] = second compound 1 µM, first compound 1 µM
[23] = second compound 1 µM, first compound 3.16 µM
[24] = second compound 1 µM, first compound 10 µM
[25] = second compound 3.16 µM, first compound 0.0316 µM
[26] = second compound 3.16 µM, first compound 0.1 µM
[27] = second compound 3.16 µM, first compound 0.316 µM
[28] = second compound 3.16 µM, first compound 1 µM
[29] = second compound 3.16 µM, first compound 3.16 µM
[30] = second compound 3.16 µM, first compound 10 µM
[31] = second compound 10 µM, first compound 0.0316 µM
[32] = second compound 10 µM, first compound 0.1 µM
[33] = second compound 10 µM, first compound 0.316 µM
[34] = second compound 10 µM, first compound 1 µM
[35] = second compound 10 µM, first compound 3.16 µM
[36] = second compound 10 µM, first compound 10 µM
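Further: spheroids exposed to the compounds for one week.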
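Wherever viability, T/C is given: percent of tumor spheroid viability relative to DMSO vehicle control wells.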

O=C(NO)c1cnc(N2CCN(S(=O)(=O)c3ccc4ccccc4c3)CC2)nc1 + Cc1[nH]c2ccc(F)cc2c1-c1nc2c3cccnc3c3ncccc3c2[nH]1
IC50 (second compound 0.0316 µM): < 0.0316 µM
IC50 (second compound 0.1 µM): < 0.0316 µM
IC50 (second compound 0.316 µM): < 0.0316 µM
IC50 (second compound 1 µM): < 0.0316 µM
IC50 (second compound 3.16 µM): < 0.0316 µM
IC50 (second compound 10 µM): < 0.0316 µM
viability, T/C [1]: 7.49%
viability, T/C [2]: 2.85%
viability, T/C [3]: 3.25%
viability, T/C [4]: 3.35%
viability, T/C [5]: 2.95%
viability, T/C [6]: 3.28%
viability, T/C [7]: 6.66%
viability, T/C [8]: 3.49%
viability, T/C [9]: 2.89%
viability, T/C [10]: 3.93%
viability, T/C [11]: 2.97%
viability, T/C [12]: 4.1%
viability, T/C [13]: 7.12%
viability, T/C [14]: 4.32%
viability, T/C [15]: 3.29%
viability, T/C [16]: 3.62%
viability, T/C [17]: 3.66%
viability, T/C [18]: 4.67%
viability, T/C [19]: 6.46%
viability, T/C [20]: 4.49%
viability, T/C [21]: 3.76%
viability, T/C [22]: 5.02%
viability, T/C [23]: 5.46%
viability, T/C [24]: 3.77%
viability, T/C [25]: 2.35%
viability, T/C [26]: 2.1%
viability, T/C [27]: 2.47%
viability, T/C [28]: 2.68%
viability, T/C [29]: 1.7%
viability, T/C [30]: 2.56%
viability, T/C [31]: 1.59%
viability, T/C [32]: 2.99%
viability, T/C [33]: 1.66%
viability, T/C [34]: 1.46%
viability, T/C [35]: 1.54%
viability, T/C [36]: 2.58%

O=c1[nH]cc(F)c(=O)[nH]1 + Cc1[nH]c2ccc(F)cc2c1-c1nc2c3cccnc3c3ncccc3c2[nH]1
IC50 (second compound 0.0316 µM): > 10 µM
IC50 (second compound 0.1 µM): > 10 µM
IC50 (second compound 0.316 µM): > 10 µM
IC50 (second compound 1 µM): > 10 µM
IC50 (second compound 3.16 µM): < 0.0316 µM
IC50 (second compound 10 µM): < 0.0316 µM
viability, T/C [1]: 98.3%
viability, T/C [2]: 98.3%
viability, T/C [3]: 104%
viability, T/C [4]: 122%
viability, T/C [5]: 69.5%
viability, T/C [6]: 59.3%
viability, T/C [7]: 102%
viability, T/C [8]: 106%
viability, T/C [9]: 111%
viability, T/C [10]: 104%
viability, T/C [11]: 70.1%
viability, T/C [12]: 56.2%
viability, T/C [13]: 96.9%
viability, T/C [14]: 90.1%
viability, T/C [15]: 81.7%
viability, T/C [16]: 104%
viability, T/C [17]: 70.5%
viability, T/C [18]: 61.1%
viability, T/C [19]: 80.4%
viability, T/C [20]: 82.3%
viability, T/C [21]: 73.7%
viability, T/C [22]: 66.4%
viability, T/C [23]: 53.9%
viability, T/C [24]: 51.6%
viability, T/C [25]: 22%
viability, T/C [26]: 18.2%
viability, T/C [27]: 14.3%
viability, T/C [28]: 16.8%
viability, T/C [29]: 11.4%
viability, T/C [30]: 9.54%
viability, T/C [31]: 1.17%
viability, T/C [32]: 2.62%
viability, T/C [33]: 1.62%
viability, T/C [34]: 1.6%
viability, T/C [35]: 1.85%
viability, T/C [36]: 1.45%

Cc1cccc(N(C)C(=O)C2C(O)CCN2c2nc(C)cc(C(F)(F)F)c2C#N)c1 (stereo unspecified) + Cc1cnc(CNC(=O)c2c(=O)c3ccc(N4CCCN(C)CC4)nc3n3c2sc2ccccc23)cn1
IC50 (second compound 0.0316 µM): > 10 µM
IC50 (second compound 0.1 µM): > 10 µM
IC50 (second compound 0.316 µM): < 0.0316 µM
IC50 (second compound 1 µM): < 0.0316 µM
IC50 (second compound 3.16 µM): < 0.0316 µM
IC50 (second compound 10 µM): < 0.0316 µM
viability, T/C [1]: 93.2%
viability, T/C [2]: 86.2%
viability, T/C [3]: 87.4%
viability, T/C [4]: 82.8%
viability, T/C [5]: 91.4%
viability, T/C [6]: 75.6%
viability, T/C [7]: 65.8%
viability, T/C [8]: 64.4%
viability, T/C [9]: 63.1%
viability, T/C [10]: 61.2%
viability, T/C [11]: 52.5%
viability, T/C [12]: 63.9%
viability, T/C [13]: 31%
viability, T/C [14]: 36.2%
viability, T/C [15]: 35.8%
viability, T/C [16]: 33.9%
viability, T/C [17]: 28.6%
viability, T/C [18]: 28.6%
viability, T/C [19]: 26.3%
viability, T/C [20]: 29%
viability, T/C [21]: 28.4%
viability, T/C [22]: 25.6%
viability, T/C [23]: 27.3%
viability, T/C [24]: 28.7%
viability, T/C [25]: 43.4%
viability, T/C [26]: 25.7%
viability, T/C [27]: 30.3%
viability, T/C [28]: 30.5%
viability, T/C [29]: 28.5%
viability, T/C [30]: 30.2%
viability, T/C [31]: 0.21%
viability, T/C [32]: 0.26%
viability, T/C [33]: 0.26%
viability, T/C [34]: 0.25%
viability, T/C [35]: 0.25%
viability, T/C [36]: 0.25%

From PubChem BioAssay AID2060490 (Molecular Pharmacology Branch, DTP, NCI, 2025)
